In assay [1] the target is JAK1 kinase activity on STAT3 in TF1 cells (Homo sapiens, UniProt P23458). The assay is described as follows: pSTAT3 cell assay (MSD; TF1 cells, 30 ng/mL IL-6 stimulation). In kind it is cell-based. The conditions noted are these: 30 ng/mL IL-6, 15 minutes. A digest of the protocol: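 Readout is pSTAT3 in lysates, quantified on an MSD plate assay using anti-STAT3 antibodies. Before lysis, TF1 cells had been serum-starved, exposed to compound for 1 hour across ten four-fold dilutions starting at 10 μM, and given IL-6 for 15 minutes.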

For assay [2], the target named is T1, human TYK2 kinase domain (JH1) (Homo sapiens, UniProt P29597).
T1 construct: recombinantly generated catalytic kinase (also known as JH1) domain of human JAK1, JAK2, JAK3 and TYK2
T1 sequence (P29597 897-1176 limits assumed): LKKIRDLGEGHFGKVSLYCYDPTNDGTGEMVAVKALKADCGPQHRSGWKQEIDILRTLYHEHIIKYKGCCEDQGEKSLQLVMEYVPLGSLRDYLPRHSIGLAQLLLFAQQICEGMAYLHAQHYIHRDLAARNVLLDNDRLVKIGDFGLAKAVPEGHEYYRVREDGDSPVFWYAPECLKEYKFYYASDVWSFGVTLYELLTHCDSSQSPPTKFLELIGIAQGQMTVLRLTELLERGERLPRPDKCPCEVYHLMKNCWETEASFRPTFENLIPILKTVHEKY
The assay is described as follows: JH1 biochemical assay for TYK2 (ADP-Glo kinase assay, recombinant JH1 catalytic domain, JAK3-974 peptide, 10 μM ATP). The conditions noted are these: JH1 kinase domain, ADP-Glo. The method, boiled down:
(§1)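 Compounds were titrated in 11 points of 3-fold dilution starting at 10 μM or 1 μM. Enzyme (JAK1 4 nM, JAK2 0.2 nM, JAK3 0.3 nM, TYK2 2 nM) and 50 μM peptide reacted for 100 minutes, followed by ADP-to-luminescence detection; IC50 by 4-parameter fit.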

For assay [3], the target named is T2, human JAK1 kinase domain (JH1) (Homo sapiens, UniProt P23458).
T2 construct: recombinantly generated catalytic kinase (also known as JH1) domain of human JAK1, JAK2, JAK3 and TYK2
In words: JH1 biochemical assay for JAK1 (ADP-Glo kinase assay, recombinant JH1 catalytic domain, JAK3-342 peptide, 35 μM ATP). The conditions noted are these: JH1 kinase domain, ADP-Glo. A digest of the protocol:
as §1

The target of assay [4] is T3, human JAK3 kinase domain (JH1) (Homo sapiens, UniProt P52333).
T3 construct: recombinantly generated catalytic kinase (also known as JH1) domain of human JAK1, JAK2, JAK3 and TYK2
The assay is described as follows: JH1 biochemical assay for JAK3 (ADP-Glo kinase assay, recombinant JH1 catalytic domain, JAK3-974 peptide, 4 μM ATP). The conditions noted are these: JH1 kinase domain, ADP-Glo. A digest of the protocol: as §1

Assay [5] has as its target JAK2 kinase activity on STAT5 in TF1 cells (Homo sapiens, UniProt O60674). In words: pSTAT5 cell assay (MSD; TF1 cells, 30 ng/mL IL-3 stimulation). Format: cell-based. The conditions noted are these: 30 ng/mL IL-3, 15 minutes. The method, boiled down:
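Serum-starved TF1 cells with native JAK2/STAT5 were pretreated 1 h with compound (10-point four-fold dilutions from 10 μM), then stimulated 15 min with 30 ng/mL IL-3. pSTAT5 in lysates quantified by MSD immunoassay; normalized percent activity fitted to a 4-parameter logistic curve for IC50.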

In assay [6] the target is T4, human JAK2 kinase domain (JH1) (Homo sapiens, UniProt O60674).
T4 construct: recombinantly generated catalytic kinase (also known as JH1) domain of human JAK1, JAK2, JAK3 and TYK2
In words: JH1 biochemical assay for JAK2 (ADP-Glo kinase assay, recombinant JH1 catalytic domain, JAK3-974 peptide, 15 μM ATP). Particulars: JH1 kinase domain, ADP-Glo. The method, boiled down:
as §1

Assay [7] deals with Tyk2 kinase activity on STAT4 in NK92 cells (Homo sapiens, UniProt P29597). The assay is described as follows: pSTAT4 cell assay (MSD; NK92 cells, 30 ng/mL IL2 stimulation). In kind it is cell-based. Particulars: 30 ng/mL IL2, 15 minutes. The method, boiled down: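 Serum-starved NK92 cells were preincubated 1 hr with compound (10-point, four-fold dilutions from 10 μM), then stimulated with 30 ng/mL IL2 for 15 minutes. Lysates were read on an MSD plate assay using anti-STAT4 antibodies, and IC50 came from a 4-parameter logistic fit of normalized percent activity.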

Structures can show the parent of a compound that is named as a salt.

Chain of Tyk2 kinase activity on STAT4 in NK92 cells (P29597 whole entry): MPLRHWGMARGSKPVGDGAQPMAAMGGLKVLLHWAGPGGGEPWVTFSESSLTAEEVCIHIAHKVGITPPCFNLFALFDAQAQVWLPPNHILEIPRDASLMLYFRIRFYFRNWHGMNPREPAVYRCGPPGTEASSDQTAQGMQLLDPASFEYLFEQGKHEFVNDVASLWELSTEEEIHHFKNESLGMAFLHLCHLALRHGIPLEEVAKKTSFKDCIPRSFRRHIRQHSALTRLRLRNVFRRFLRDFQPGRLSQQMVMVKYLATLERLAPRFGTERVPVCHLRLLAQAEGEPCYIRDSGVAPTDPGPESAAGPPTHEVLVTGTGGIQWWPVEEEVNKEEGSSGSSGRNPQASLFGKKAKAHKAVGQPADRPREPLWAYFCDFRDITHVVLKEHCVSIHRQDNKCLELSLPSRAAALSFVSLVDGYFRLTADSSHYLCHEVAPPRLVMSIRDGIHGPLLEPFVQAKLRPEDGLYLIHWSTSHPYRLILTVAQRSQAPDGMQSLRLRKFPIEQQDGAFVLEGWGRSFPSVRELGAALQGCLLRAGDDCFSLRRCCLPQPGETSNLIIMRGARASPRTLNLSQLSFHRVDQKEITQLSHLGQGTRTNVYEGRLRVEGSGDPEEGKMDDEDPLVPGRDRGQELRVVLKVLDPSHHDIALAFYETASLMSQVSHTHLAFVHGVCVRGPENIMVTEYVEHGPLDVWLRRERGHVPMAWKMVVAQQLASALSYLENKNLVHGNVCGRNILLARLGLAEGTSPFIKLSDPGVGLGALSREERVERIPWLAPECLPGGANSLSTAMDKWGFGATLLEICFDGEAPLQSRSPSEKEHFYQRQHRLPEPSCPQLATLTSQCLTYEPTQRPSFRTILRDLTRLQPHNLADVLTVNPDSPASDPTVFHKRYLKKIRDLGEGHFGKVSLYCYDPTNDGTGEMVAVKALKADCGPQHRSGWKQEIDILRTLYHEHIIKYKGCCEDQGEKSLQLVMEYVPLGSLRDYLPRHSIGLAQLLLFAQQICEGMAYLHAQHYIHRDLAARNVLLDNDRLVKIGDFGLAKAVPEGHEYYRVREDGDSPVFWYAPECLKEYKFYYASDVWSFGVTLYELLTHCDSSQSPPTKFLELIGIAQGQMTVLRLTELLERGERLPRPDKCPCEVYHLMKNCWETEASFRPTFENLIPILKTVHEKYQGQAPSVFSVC
T2 sequence (P23458 875-1153 limits assumed): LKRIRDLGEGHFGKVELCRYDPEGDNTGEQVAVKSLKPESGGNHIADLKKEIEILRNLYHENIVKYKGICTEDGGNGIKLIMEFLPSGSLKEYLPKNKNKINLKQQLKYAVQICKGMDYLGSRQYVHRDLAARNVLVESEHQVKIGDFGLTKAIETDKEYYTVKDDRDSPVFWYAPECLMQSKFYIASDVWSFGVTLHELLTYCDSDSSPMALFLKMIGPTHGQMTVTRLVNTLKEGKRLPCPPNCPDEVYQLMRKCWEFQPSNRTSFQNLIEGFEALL
T4 sequence (O60674 849-1124 limits assumed): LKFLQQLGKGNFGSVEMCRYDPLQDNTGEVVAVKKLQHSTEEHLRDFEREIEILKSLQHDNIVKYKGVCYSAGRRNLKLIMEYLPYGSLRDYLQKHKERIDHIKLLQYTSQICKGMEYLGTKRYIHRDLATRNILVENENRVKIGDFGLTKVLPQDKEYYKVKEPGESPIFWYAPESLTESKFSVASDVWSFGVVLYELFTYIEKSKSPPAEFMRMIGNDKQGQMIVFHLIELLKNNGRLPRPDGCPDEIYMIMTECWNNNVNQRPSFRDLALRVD
Chain of JAK2 kinase activity on STAT5 in TF1 cells (O60674 whole entry): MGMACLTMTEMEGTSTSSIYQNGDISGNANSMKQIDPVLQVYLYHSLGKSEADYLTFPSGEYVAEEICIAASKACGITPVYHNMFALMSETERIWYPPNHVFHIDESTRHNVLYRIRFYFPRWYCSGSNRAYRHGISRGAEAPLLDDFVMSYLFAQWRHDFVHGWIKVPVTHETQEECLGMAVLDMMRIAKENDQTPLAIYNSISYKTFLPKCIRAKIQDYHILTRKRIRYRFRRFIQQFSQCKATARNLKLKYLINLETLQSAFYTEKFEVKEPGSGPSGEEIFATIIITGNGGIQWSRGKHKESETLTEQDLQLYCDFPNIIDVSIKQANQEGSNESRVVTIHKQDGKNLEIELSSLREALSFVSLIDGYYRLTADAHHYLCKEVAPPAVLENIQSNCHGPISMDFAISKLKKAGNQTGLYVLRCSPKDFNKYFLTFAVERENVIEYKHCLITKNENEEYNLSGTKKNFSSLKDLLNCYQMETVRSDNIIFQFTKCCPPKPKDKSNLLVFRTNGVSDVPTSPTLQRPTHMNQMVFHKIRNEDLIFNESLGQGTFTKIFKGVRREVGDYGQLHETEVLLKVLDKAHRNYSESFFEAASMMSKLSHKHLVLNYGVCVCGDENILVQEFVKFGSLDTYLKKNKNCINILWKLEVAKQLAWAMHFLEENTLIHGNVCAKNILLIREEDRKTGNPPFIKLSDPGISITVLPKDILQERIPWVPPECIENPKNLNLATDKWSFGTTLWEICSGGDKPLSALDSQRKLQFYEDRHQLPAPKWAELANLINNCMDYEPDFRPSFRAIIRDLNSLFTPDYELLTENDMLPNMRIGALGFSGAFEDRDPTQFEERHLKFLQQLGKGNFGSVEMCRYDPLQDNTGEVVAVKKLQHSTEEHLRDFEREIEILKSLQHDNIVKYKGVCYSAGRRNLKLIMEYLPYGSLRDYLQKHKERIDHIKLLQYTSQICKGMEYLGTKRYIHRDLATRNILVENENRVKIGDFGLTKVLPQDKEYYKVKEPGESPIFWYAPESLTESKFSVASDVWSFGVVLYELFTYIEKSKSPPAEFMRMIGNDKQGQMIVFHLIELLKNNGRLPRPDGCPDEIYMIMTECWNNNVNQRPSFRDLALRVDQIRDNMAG
T3 sequence (P52333 822-1111 limits assumed): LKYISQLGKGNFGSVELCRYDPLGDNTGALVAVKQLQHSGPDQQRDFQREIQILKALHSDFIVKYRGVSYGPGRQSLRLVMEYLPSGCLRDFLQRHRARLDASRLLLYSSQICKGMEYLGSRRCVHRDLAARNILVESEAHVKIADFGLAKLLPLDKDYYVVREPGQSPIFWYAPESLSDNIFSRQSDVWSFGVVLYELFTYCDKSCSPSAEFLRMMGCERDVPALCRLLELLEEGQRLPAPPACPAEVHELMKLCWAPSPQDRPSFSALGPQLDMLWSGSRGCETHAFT
Chain of JAK1 kinase activity on STAT3 in TF1 cells (P23458 whole entry): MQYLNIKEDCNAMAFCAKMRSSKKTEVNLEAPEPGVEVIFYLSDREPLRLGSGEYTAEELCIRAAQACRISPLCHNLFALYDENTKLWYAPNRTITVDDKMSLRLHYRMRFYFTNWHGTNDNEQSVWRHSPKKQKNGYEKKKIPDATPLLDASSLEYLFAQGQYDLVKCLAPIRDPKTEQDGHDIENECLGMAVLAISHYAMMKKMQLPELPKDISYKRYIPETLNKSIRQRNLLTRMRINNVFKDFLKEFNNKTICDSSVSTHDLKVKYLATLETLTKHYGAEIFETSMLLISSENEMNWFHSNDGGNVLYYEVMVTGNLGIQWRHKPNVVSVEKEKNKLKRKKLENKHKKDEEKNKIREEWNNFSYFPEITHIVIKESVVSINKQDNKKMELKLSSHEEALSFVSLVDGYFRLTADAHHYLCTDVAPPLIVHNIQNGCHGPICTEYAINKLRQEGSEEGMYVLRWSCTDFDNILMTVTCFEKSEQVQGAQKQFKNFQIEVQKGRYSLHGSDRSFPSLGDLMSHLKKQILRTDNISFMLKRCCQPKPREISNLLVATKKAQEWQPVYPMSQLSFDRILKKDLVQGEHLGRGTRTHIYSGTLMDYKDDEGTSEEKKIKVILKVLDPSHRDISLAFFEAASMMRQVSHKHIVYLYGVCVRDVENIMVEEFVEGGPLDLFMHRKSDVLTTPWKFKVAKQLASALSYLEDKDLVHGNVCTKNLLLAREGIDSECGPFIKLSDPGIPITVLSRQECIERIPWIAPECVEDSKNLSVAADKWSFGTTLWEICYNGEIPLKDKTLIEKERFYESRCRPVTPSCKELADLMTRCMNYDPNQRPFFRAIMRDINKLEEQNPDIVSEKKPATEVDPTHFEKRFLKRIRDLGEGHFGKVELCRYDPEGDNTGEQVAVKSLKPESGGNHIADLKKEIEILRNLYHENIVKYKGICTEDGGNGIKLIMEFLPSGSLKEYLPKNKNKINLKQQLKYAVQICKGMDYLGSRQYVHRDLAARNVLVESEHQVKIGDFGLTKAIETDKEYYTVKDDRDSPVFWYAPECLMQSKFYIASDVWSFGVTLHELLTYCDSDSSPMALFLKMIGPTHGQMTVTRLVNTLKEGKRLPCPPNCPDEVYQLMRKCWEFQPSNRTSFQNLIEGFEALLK

`C[C@@H]1CN(c2ccnn3cc(-c4cnn(C5CCOC5)c4)cc23)C(=O)[C@]1(C#N)C1CC1` (stereo partly drawn) [Example 162, (3R,4S)-3-cyclopropyl-4-methyl-2-oxo-1-(6-(1-(tetrahydrofuran-3-yl)-1H-pyrazol-4-yl)pyrrolo[1,2-b]pyridazin-4-yl)pyrrolidine-3-carbonitrile]: the IC50 was 1000 to 5000 nM in assay [1]; less than 5 nM in assay [2]; less than 100 nM in assay [3]; less than 100 nM in assay [4]; 1000 to 5000 nM in assay [5]; less than 100 nM in assay [6]. Also, the IC50 in assay [7] fell in the range of 20 to 50 nM.

As to `C[C@@H]1CN(c2ccnn3cc(-c4cnn(S(C)(=O)=O)c4)cc23)C(=O)[C@]1(C#N)C1CC1` [Example 163, (3R,4S)-3-cyclopropyl-4-methyl-1-(6-(1-(methylsulfonyl)-1H-pyrazol-4-yl)pyrrolo[1,2-b]pyridazin-4-yl)-2-oxopyrrolidine-3-carbonitrile], the IC50 in assay [1] was 1000 to 5000 nM; in assay [2] it was less than 5 nM; in assay [3] it was 100 to 1000 nM; in assay [4] it was 100 to 1000 nM; in assay [5] it was 5000 to 10000 nM; in assay [6], 100 to 1000 nM. The molecule further yielded an IC50 in assay [7] greater than 100 nM.

Take `[2H]C([2H])([2H])n1cc(-c2cc3c(N4C[C@@H](C)[C@@](C#N)(C5CC5)C4=O)ccnn3c2)cn1` [Example 164, (3R,4 S)-3-cyclopropyl-4-methyl-1-(6-(1-(methyl-d3)-1H-pyrazol-4-yl)pyrrolo[1,2-b]pyridazin-4-yl)-2-oxopyrrolidine-3-carbonitrile]: the IC50 in assay [1] is 1000 to 5000 nM; in assay [2] it was less than 5 nM; in assay [3], less than 100 nM; in assay [4], less than 100 nM; in assay [5] it was 5000 to 10000 nM; in assay [6] it was 100 to 1000 nM. Moreover, in assay [7], the IC50 was 20 to 50 nM.

Take `Cc1nn(C)cc1-c1cc2c(N3C[C@@H](C)[C@@](C#N)(C4CC4)C3=O)ccnn2c1` [Example 165, (3R,4S)-3-cyclopropyl-1-(6-(1,3-dimethyl-1H-pyrazol-4-yl)pyrrolo[1,2-b]pyridazin-4-yl)-4-methyl-2-oxopyrrolidine-3-carbonitrile]: the IC50 in assay [1] was 1000 to 5000 nM; in assay [2], less than 5 nM; in assay [3], 100 to 1000 nM; in assay [4], 100 to 1000 nM; in assay [5], 5000 to 10000 nM; in assay [6], 100 to 1000 nM. The molecule also came in with an IC50 in assay [7] of 20 to 50 nM.

Turning to `Cc1c(-c2cc3c(N4C[C@@H](C)[C@@](C#N)(C5CC5)C4=O)ccnn3c2)cnn1C` [Example 166, (3R,4S)-3-cyclopropyl-1-(6-(1,5-dimethyl-1H-pyrazol-4-yl)pyrrolo[1,2-b]pyridazin-4-yl)-4-methyl-2-oxopyrrolidine-3-carbonitrile], the 50% inhibitory concentration (IC50) was greater than 10000 nM in assay [1]; 5 to 20 nM in assay [2]; 100 to 1000 nM in assay [3]; 100 to 1000 nM in assay [4]; greater than 10000 nM in assay [5]; 100 to 1000 nM in assay [6]. Moreover, the concentration for half-maximal inhibition (IC50) in assay [7] was greater than 100 nM.

Regarding `CC(C)n1cc(-c2cc3c(N4C[C@@H](C)[C@@](C#N)(C5CC5)C4=O)ccnn3c2)cn1` [Example 167, (3R,4S)-3-cyclopropyl-1-(6-(1-isopropyl-1H-pyrazol-4-yl)pyrrolo[1,2-b]pyridazin-4-yl)-4-methyl-2-oxopyrrolidine-3-carbonitrile], the IC50 in assay [1] is 100 to 1000 nM; in assay [2], less than 5 nM; in assay [3] it was less than 100 nM; in assay [4] it was less than 100 nM; in assay [5], 1000 to 5000 nM; in assay [6], less than 100 nM. This molecule yielded an IC50 in assay [7] of 20 to 50 nM.

As to `C[C@@H]1CN(c2ccnn3cc(-c4cnn(CC#N)c4)cc23)C(=O)[C@]1(C#N)C1CC1` [Example 168, (3R,4S)-1-(6-(1-(cyanomethyl)-1H-pyrazol-4-yl)pyrrolo[1,2-b]pyridazin-4-yl)-3-cyclopropyl-4-methyl-2-oxopyrrolidine-3-carbonitrile], the IC50 was 1000 to 5000 nM in assay [1]; less than 5 nM in assay [2]; less than 100 nM in assay [3]; less than 100 nM in assay [4]; 1000 to 5000 nM in assay [5]; less than 100 nM in assay [6]. For the same molecule, the IC50 in assay [7] was 50 to 100 nM.

As for `C[C@@H]1CN(c2ccnn3cc(-c4cnn(C5CCCCC5)c4)cc23)C(=O)[C@]1(C#N)C1CC1` [Example 169, (3R,4S)-1-(6-(1-cyclohexyl-1H-pyrazol-4-yl)pyrrolo[1,2-b]pyridazin-4-yl)-3-cyclopropyl-4-methyl-2-oxopyrrolidine-3-carbonitrile], the IC50 is 1000 to 5000 nM in assay [1]; less than 5 nM in assay [2]; less than 100 nM in assay [3]; less than 100 nM in assay [4]; 1000 to 5000 nM in assay [5]; less than 100 nM in assay [6]. In assay [7], the IC50 was greater than 100 nM.

As to `C[C@@H]1CN(c2ccnn3cc(-c4cnn(C5CCCC5)c4)cc23)C(=O)[C@]1(C#N)C1CC1` [Example 170, (3R,4S)-1-(6-(1-cyclopentyl-1H-pyrazol-4-yl)pyrrolo[1,2-b]pyridazin-4-yl)-3-cyclopropyl-4-methyl-2-oxopyrrolidine-3-carbonitrile], the IC50 in assay [1] was 5000 to 10000 nM; in assay [2], less than 5 nM; in assay [3], less than 100 nM; in assay [4] it was less than 100 nM; in assay [5] it was 5000 to 10000 nM; in assay [6], less than 100 nM. For the same molecule, in assay [7], the IC50 was greater than 100 nM.

On to `C[C@@H]1CN(c2ccnn3cc(-c4cnn5c4CCC5)cc23)C(=O)[C@]1(C#N)C1CC1` [Example 171, (3R,4S)-3-cyclopropyl-1-(6-(5,6-dihydro-4H-pyrrolo[1,2-b]pyrazol-3-yl)pyrrolo[1,2-b]pyridazin-4-yl)-4-methyl-2-oxopyrrolidine-3-carbonitrile], for which the IC50 is 5000 to 10000 nM in assay [1]; 5 to 20 nM in assay [2]; 100 to 1000 nM in assay [3]; 100 to 1000 nM in assay [4]; greater than 10000 nM in assay [5]; 100 to 1000 nM in assay [6]. The molecule further returned an IC50 in assay [7] greater than 100 nM.

In the case of `CCOCCn1cc(-c2cc3c(N4C[C@@H](C)[C@@](C#N)(C5CC5)C4=O)ccnn3c2)cn1` [Example 172, (3R,4S)-3-cyclopropyl-1-(6-(1-(2-ethoxyethyl)-1H-pyrazol-4-yl)pyrrolo[1,2-b]pyridazin-4-yl)-4-methyl-2-oxopyrrolidine-3-carbonitrile], the IC50 in assay [1] was 1000 to 5000 nM; in assay [2], less than 5 nM; in assay [3], 100 to 1000 nM; in assay [4], 100 to 1000 nM; in assay [5] it was 5000 to 10000 nM; in assay [6], 100 to 1000 nM. The molecule also displayed an IC50 in assay [7] greater than 100 nM.

Turning to `CCc1ccc(-c2cc3c(N4C[C@@H](C)[C@@](C#N)(C5CC5)C4=O)ccnn3c2)cn1` [Example 174, (3R,4S)-3-cyclopropyl-1-(6-(6-ethylpyridin-3-yl)pyrrolo[1,2-b]pyridazin-4-yl)-4-methyl-2-oxopyrrolidine-3-carbonitrile trifluoroacetate], the IC50 in assay [1] lay within 1000 to 5000 nM; in assay [2], 5 to 20 nM; in assay [3], 100 to 1000 nM; in assay [4], 100 to 1000 nM; in assay [5], 5000 to 10000 nM; in assay [6] it was 100 to 1000 nM. The molecule further showed an IC50 in assay [7] of 50 to 100 nM.

Regarding `C[C@@H]1CN(c2ccnn3cc(-c4ccc(OC(F)F)nc4)cc23)C(=O)[C@]1(C#N)C1CC1` [Example 176, (3R,4S)-3-cyclopropyl-1-(6-(6-(difluoromethoxy)pyridin-3-yl)pyrrolo[1,2-b]pyridazin-4-yl)-4-methyl-2-oxopyrrolidine-3-carbonitrile], the IC50 in assay [1] is 5000 to 10000 nM; in assay [2], 5 to 20 nM; in assay [3] it was 100 to 1000 nM; in assay [4], 100 to 1000 nM; in assay [5] it was greater than 10000 nM; in assay [6], 1000 to 5000 nM. Also, the half-maximal inhibitory concentration (IC50) in assay [7] is greater than 100 nM.

`C[C@@H]1CN(c2ncnn3cc(-c4cnn(C)c4)cc23)C(=O)[C@]1(C#N)C1CC1` [Example 180, (3R,4S)-3-cyclopropyl-4-methyl-1-(6-(1-methyl-1H-pyrazol-4-yl)pyrrolo[2,1-f][1,2,4]triazin-4-yl)-2-oxopyrrolidine-3-carbonitrile]: the IC50 in assay [1] is 1000 to 5000 nM; in assay [2], greater than 100 nM; in assay [3] it was greater than 10000 nM; in assay [4] it was greater than 10000 nM; in assay [5], 5000 to 10000 nM; in assay [6] it was 5000 to 10000 nM. In addition, in assay [7], the IC50 is greater than 100 nM.

The record behind these values is US20260297085A1, “1 H-PYRROLO[2,3-B]PYRIDIN-4-YL]-2-OXOPYRROLIDINE-3-CARBONITRILE DERIVATIVES AS TYROSINE KINASE 2 (TYK2) INHIBITORS FOR THE TREATMENT OF INFLAMMATORY DISEASES” (BIOGEN MA INC., priority 2023, published 2026).
